Source: ChEMBL document CHEMBL6078667, “Synthesis, Biological Evaluation, and Mechanistic Insights of Rubrolide Analogues as Antitumor Agents” (J Nat Prod, 2024)
Activity calls are given as the source filed them. The calls are words filed in the database; no cut-off is given here.

How the values were obtained:
HCT-116 [1] = experiment: Cytotoxicity against human HCT-116 cells assessed as survival rate at 10 uM measured after 72 hrs by MTT assay relative to control; type: functional; conditions: read-out: Survival
MGC-803 = experiment: Cytotoxicity against human MGC-803 cells assessed as inhibition of cell growth at 10 uM measured after 72 hrs by MTT assay relative to control; type: functional
MCF7 [2] = experiment: Cytotoxicity against human MCF7 cells assessed as inhibition of cell growth at 10 uM measured after 72 hrs by MTT assay relative to control; type: functional
MKN-45 = experiment: Cytotoxicity against human MKN-45 cells assessed as inhibition of cell growth at 10 uM measured after 72 hrs by MTT assay relative to control; type: functional
MCF7 [3] = experiment: Cytotoxicity against human MCF7 cells assessed as inhibition of cell growth incubated for 72 hrs by MTT assay; type: functional, cell-based; conditions: MCF7, 72 h
U-87 MG = experiment: Cytotoxicity against human U-87 MG cells assessed as inhibition of cell growth incubated for 72 hrs by MTT assay; type: functional, cell-based, U-87MG ATCC
HeLa [4] = experiment: Induction of apoptosis in human HeLa cells assessed as late apoptotic cells at 0.2 uM incubated for 24 hrs by Annexin V-FITC/PI staining based flow cytometric analysis (reference value: 6.58 %); type: functional
HeLa [5] = experiment: Induction of apoptosis in human HeLa cells assessed as necrotic cells at 0.2 uM incubated for 24 hrs by Annexin V-FITC/PI staining based flow cytometric analysis (reference value: 0.44 %); type: functional
HeLa [6] = experiment: Induction of apoptosis in human HeLa cells assessed as early apoptotic cells at 0.4 uM incubated for 24 hrs by Annexin V-FITC/PI staining based flow cytometric analysis (reference value: 2.35 %); type: functional
HeLa [7] = experiment: Induction of apoptosis in human HeLa cells assessed as late apoptotic cells at 0.4 uM incubated for 24 hrs by Annexin V-FITC/PI staining based flow cytometric analysis (reference value: 6.58 %); type: functional
HeLa [8] = experiment: Induction of apoptosis in human HeLa cells assessed as necrotic cells at 0.4 uM incubated for 24 hrs by Annexin V-FITC/PI staining based flow cytometric analysis (reference value: 0.44 %); type: functional
HCT-116 [9] = experiment: Induction of apoptosis in human HCT-116 cells assessed as early apoptotic cells at 0.2 uM incubated for 24 hrs by Annexin V-FITC/PI staining based analysis (reference value: 7.40 %); type: functional
[10] = Drug localization in human HeLa cell endoplasmic reticulum incubated for 8 hrs by […] dye based fluorescence microscopic analysis; type: ADME, subcellular
HeLa [11] = experiment: Upregulation of phosphorylated eIF2alpha expression in human HeLa cells at 0.2 to 0.4 uM measured after 48 hrs by Western blot analysis; type: functional, cell-based; conditions: dose 0.2-0.4 µM
HeLa [12] = experiment: Upregulation of CHOP expression in human HeLa cells at 0.2 to 0.4 uM measured after 48 hrs by Western blot analysis; type: functional, cell-based; conditions: dose 0.2-0.4 µM
HCT-116 [13] = experiment: Upregulation of CHOP expression in human HCT-116 cells at 0.2 to 0.4 uM measured after 48 hrs by Western blot analysis; type: functional, cell-based; conditions: dose 0.2-0.4 µM
HCT-116 [14] = experiment: Induction of ROS production in human HCT-116 cells at 0.2 to 0.4 uM incubated for 24 hrs by DCFH-DA probe based flow cytometric analysis; type: functional, cell-based; conditions: dose 0.2-0.4 µM
HCT-116 [15] = experiment: Induction of ROS production in human HCT-116 cells assessed as fold change at 0.2 to 0.4 uM incubated for 24 hrs by DCFH-DA probe based flow cytometric analysis; type: functional; conditions: dose 0.2-0.4 µM
HeLa [16] = experiment: Cell cycle arrest in human HeLa cells assessed as accumulation of cells at G0/G1 phase at 0.2 uM measured after 24 hrs by PI staining based flow cytometric analysis (reference value: 54.7 %); type: functional
HeLa [17] = experiment: Cell cycle arrest in human HeLa cells assessed as accumulation of cells at G2/M phase at 0.4 uM measured after 24 hrs by PI staining based flow cytometric analysis (reference value: 22.8 %); type: functional
HeLa [18] = experiment: Cell cycle arrest in human HeLa cells assessed as increase in cyclin B1 expression at 0.2 to 0.4 uM incubated for 24 hrs by Western blot analysis; type: functional, cell-based; conditions: dose 0.2-0.4 µM
HeLa [19] = experiment: Antitumor activity against human HeLa cells xenografted in female BALB/c nude mouse assessed as reduction in tumor cell volume at 20 mg/kg, ip administered as liposome formulation once daily for 13 days relative to control; type: functional; set-up: scale not given: the % may be the effect or the level left; conditions: time 13 day
HeLa [20] = experiment: Antitumor activity against human HeLa cells xenografted in female BALB/c nude mouse assessed as reduction in tumor cell weight at 20 mg/kg, ip administered as liposome formulation once daily for 13 days relative to control; type: functional; set-up: scale not given: the % may be the effect or the level left; conditions: time 13 day
HeLa [21] = experiment: Antitumor activity against human HeLa cells xenografted in female BALB/c nude mouse assessed as reduction in tumor cell growth administered intraperitoneally as liposome formulation once daily for 13 days; type: functional; conditions: dose 5-20 mg/kg, route ip, time 13.0 day
[22] = Toxicity in female BALB/c nude mouse xenografted with human HeLa cells assessed as body weight loss at 5 to 20 mg/kg, ip administered as liposome formulation once daily for 13 days; type: organism-based; conditions: in vivo, 312 h, dose 5-20 mg/kg, time 13 day

With `COc1ccc(C2=CC(=O)O/C2=C\c2ccc(O)cc2)cc1` the viability at 10 µM (HCT-116 [1]) was 19.7%, the inhibition at 10 µM (MGC-803) was over 50% and the inhibition at 10 µM (MCF7 [2]) was over 50%. The inhibition at 10 µM (MKN-45) was over 50%, the IC50 (MCF7 [3]) was 1000 nM and the IC50 (U-87 MG) was 2400 nM. It also gave an Activity (HeLa [4]) of 11.5%, an Activity (HeLa [5]) of 0.44% and an Activity (HeLa [6]) of 10.5%. The Activity (HeLa [7]) was 40.6%, the Activity (HeLa [8]) was 1% and the Activity (HCT-116 [9]) was 3.69%. The Drug uptake [10] was “Active”, the Activity (HeLa [11]) was “Active; Compound Impacts Endoplasmic Reticulum Stress Related Perk-Eif2Alpha-Chop Signalling Pathway” and the Activity (HeLa [12]) was “Active; Compound Impacts Endoplasmic Reticulum Stress Related Perk-Eif2Alpha-Chop Signalling Pathway”. The Activity (HCT-116 [13]) was “Active; Compound Impacts Endoplasmic Reticulum Stress Related Perk-Eif2Alpha-Chop Signalling Pathway”, the Activity (HCT-116 [14]) was “Active” and the “fold change (FC)” value (HCT-116 [15]) was over 4. The Activity (HeLa [16]) was 18.8%, the Activity (HeLa [17]) was 71.1% and the Activity (HeLa [18]) was “Active”. The Activity (HeLa [19]) was over 60%, the Activity (HeLa [20]) was 50% and the Activity (HeLa [21]) was “Dose-dependent-effect”. For the same compound, the Activity [22] was “Non-toxic”.
